Laboratory results as given in patent US6495542B1, “Benzamide derivatives as vasopressin antagonists” (Fujisawa Pharmaceutical Co., Ltd., priority 1998, dated 2002).
Structures can show the parent of a compound that is named as a salt.

Columns and labels:
[1] = molecular target: T1, human V2 receptor (Homo sapiens, UniProt P30518); test: Vasopressin 2 (V2) receptor binding, 3H-vasopressin competition on membranes of CHO cells expressing human V2 receptor; conditions: human V2 receptor in CHO cells; competition with 0.5 nm 3H-vasopressin, 2 hours at 22° C.
T1 construct: expressed in transfected cells
Source text: Vasopressin 2 (V2) Receptor Binding
For binding assays, a receptor cDNA was permanently expressed in Chinese hamster ovary (CHO) cells. A vector directing expression of the cDNA of a human V2 receptor was transfected into the CHO cells, and the clonal cell lines expressing the human V2 receptor were established essentially as described previously (Nakajima, Y., et. al. J. Biol. chem., 267, 2437, 1992).
DNA-transfected cells were harvested and homogenized in ice-cold […] Tris-HCl (pH 7.4), 10 mM MgCl2, 1 mM EDTA and 5 μg/ml p-amidinophenylmethylsulfonyl fluoride (A-PMSF). The homogenate was centrifuged at 500×g for 10 minutes. The supernatant was centrifuged at […] for 1 hour. The final pellet was suspended in 25 mM Tris-HCl buffer (pH 7.4, containing 10 mM MgCl2, 1 mM EDTA and 5 μg/ml A-PMSF), and stored in small aliquots at −80° C.
Competition assays were conducted at equilibrium (2 hours at 22° C.) by using 0.5 nm ^3H-vasopressin (40-87 Ci/mmol; New England Nuclear) in 100 mM Tris-HCl buffer (pH 7.4, containing 5 mM MgCl2, 5 μg/ml A-PMSF, 4 μg/ml leupeptin, 40 μg/ml bacitracin, 20 μg/ml chymostatin and 0.1% bovine serum albimin). Nonspecific binding was determined by using 1 μM vasopressin. After incubation, the reaction mixture was immediately filtered through Whatman glass filter (GF/C). The filter was washed twice with the same buffer. The radioactivity was counted by using a liquid scintillation counter. Competition activity of the test compound was represented by IC50 values.

[2] = molecular target: T2, Vasopressin 1 (VI) Receptor (Homo sapiens, UniProt P37288); test: Vasopressin 1 (V1) receptor binding, 3H-vasopressin competition on human platelet membranes; conditions: competition with 1.5 nM 3H-vasopressin, 15 minutes at 30° C.
T2 construct: Platelet-rich plasma (PRP) was prepared by centrifugation of whole blood; from tissue; host or cells: platelet membranes from blood of a normal subject
Procedure: (§1) Vasopressin 1 (VI) Receptor Binding
Blood was obtained from normal subject by venipuncture. Platelet-rich plasma (PRP) was prepared by centrifugation of whole blood at 200×g for 10 minutes. PRP was centrifuged at 45,000×g for 30 minutes. The remaining pellet was resuspended in 10 volume of ice-cold 100 mM Tris-HCl buffer (pH 7.4, containing 5 mM MgCl2, 0.1% bovine serum albumin and 1 mM EDTA), and again centrifuged at 45,000×g for 30 minutes. The final pellet was resuspended in 100 mM Tris-HCl buffer. The resulting suspension was used immediately for the binding assay.
(§2) Competition assays were conducted at equilibrium (15 minutes at 30° C.) by using 1.5 nM ^3H-vasopressin (40-87 Ci/mmol; New England Nuclear) in 100 mM Tris-HCl buffer (pH 7.4). Nonspecific binding was determined by using 1 μM vasopressin. After incubation, the reaction was terminated by adding 5 ml of ice-cold 100 mM Tris-HCl buffer (pH 7.4), and then filtered immediately through Whatman glass filter (GF/C). The filter was washed twice with the same buffer. The glass filter was placed in a liquid scintillation cocktail, and the radioactivity thereof was counted by using a liquid scintillation counter. Competition activity of the test compound was represented by IC50 values.

[3] = molecular target: Vasopressin 1 (VI) Receptor (Rattus norvegicus, UniProt P30560); test: Vasopressin 1 (V1) receptor binding, rat; conditions: Test 1 V1 receptor binding
Procedure: as §1, §2

Sequence of Vasopressin 1 (VI) Receptor (Rattus norvegicus, UniProt P30560) (P30560 whole entry): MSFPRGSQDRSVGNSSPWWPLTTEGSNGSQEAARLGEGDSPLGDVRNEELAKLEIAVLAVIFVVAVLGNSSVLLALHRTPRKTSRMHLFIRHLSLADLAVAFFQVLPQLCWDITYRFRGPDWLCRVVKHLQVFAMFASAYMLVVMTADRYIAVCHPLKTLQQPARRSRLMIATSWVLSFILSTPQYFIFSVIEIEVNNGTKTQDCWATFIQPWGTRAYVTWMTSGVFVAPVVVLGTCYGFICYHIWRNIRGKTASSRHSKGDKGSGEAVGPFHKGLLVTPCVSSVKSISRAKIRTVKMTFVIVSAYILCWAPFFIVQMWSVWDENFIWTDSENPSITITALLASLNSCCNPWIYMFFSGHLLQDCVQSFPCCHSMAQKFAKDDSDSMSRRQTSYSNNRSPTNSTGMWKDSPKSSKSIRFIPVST
T2 sequence (P37288 whole entry): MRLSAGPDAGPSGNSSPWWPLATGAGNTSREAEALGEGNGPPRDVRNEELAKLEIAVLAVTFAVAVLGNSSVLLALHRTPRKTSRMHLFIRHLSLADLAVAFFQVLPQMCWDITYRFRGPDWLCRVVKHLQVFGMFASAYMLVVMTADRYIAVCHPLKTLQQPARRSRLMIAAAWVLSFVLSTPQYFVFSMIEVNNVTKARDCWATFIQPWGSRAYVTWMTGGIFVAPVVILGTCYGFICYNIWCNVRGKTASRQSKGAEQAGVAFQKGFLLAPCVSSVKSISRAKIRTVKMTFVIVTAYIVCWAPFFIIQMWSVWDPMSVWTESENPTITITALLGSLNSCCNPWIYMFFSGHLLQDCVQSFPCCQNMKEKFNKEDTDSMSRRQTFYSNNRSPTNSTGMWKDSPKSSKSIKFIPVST
T1 sequence (P30518 whole entry): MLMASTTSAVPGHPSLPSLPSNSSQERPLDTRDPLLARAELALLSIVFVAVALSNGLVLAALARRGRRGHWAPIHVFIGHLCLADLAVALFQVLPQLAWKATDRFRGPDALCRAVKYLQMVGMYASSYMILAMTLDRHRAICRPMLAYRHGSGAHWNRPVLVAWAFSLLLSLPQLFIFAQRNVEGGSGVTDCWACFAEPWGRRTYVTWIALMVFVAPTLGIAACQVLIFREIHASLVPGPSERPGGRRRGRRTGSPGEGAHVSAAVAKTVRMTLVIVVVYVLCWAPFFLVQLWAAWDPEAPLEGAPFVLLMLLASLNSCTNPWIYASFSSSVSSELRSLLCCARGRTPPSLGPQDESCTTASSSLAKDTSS

SMILES	IC50 [1] [nM]	IC50 [2] [nM]	IC50 [3] [nM]
COc1cc(C(=O)N2CCCCc3ccccc32)ccc1C(=O)Nc1cccc2[nH]c(C)nc12 [Example 2, 2-methoxy-N-(2-methyl-1H-benzimidazol-4-yl)-4-(2,3,4,5-tetrahydro-1H-1-benzazepin-1-yl)-carbonylbenzamide]	241	0.41	2.1
CCc1nc2c(NC(=O)c3ccc(C(=O)N4CCCCc5ccccc54)cc3OC)cccc2[nH]1 [Example 55, N-(2-Ethyl-1H-benzimidazol-4-yl)-2-methoxy-4-(2,3,4,5-tetrahydro-1H-1-benzazepin-1-yl)carbonylbenzamide hydrochloride]	104	0.7	1.7
COc1cc(C(=O)N2CCCCc3ccccc32)ccc1C(=O)Nc1cccc2[nH]c(N(C)CCN)nc12 [Example 76, N-[2-[N-(2-Aminoethyl)-N-methylamino]-1H-benzimidazol-4-yl]-2-methoxy-4-(2,3,4,5-tetrahydro-1H-1-benzazepin-1-yl)carbonylbenzamide dihydrochloride]	140	0.08	0.2

The remaining compounds from weak to strong by IC50 [1], led by results:

IC50 [1] [nM]	IC50 [2] [nM]	IC50 [3] [nM]	SMILES
159	0.5	2.2	COc1cc(C(=O)N2CCCCc3ccccc32)ccc1C(=O)Nc1cccc2[nH]c(C(=O)N(C)C)nc12 [Example 73, N-[2-(N,N-Dimethylcarbamoyl)-1H-benzimidazol-4-yl]-2-methoxy-4-(2,3,4,5-tetrahydro-1H-1-benzazepin-1-yl)carbonylbenzamide]
69	0.55	1.8	COc1cc(C(=O)N2CCCCc3ccccc32)ccc1C(=O)Nc1cccc2[nH]cnc12 [Example 50, N-(1H-Benzimidazol-4-yl)-2-methoxy-4-(2,3,4,5-tetrahydro-1H-1-benzazepin-1-yl)carbonylbenzamide hydrochloride]
